Consider ten sequences from US20230190867A1, “METHODS OF TREATING NASH AND COMPOSITIONS THEREFORE” (BIOINCEPT, LLC, priority 2018, published 2023).

The test system of assay [1] is Kv flux. Format: cell-based. Further details: Effectiveness: scale not given here. As to conditions: for Effectiveness / Kv flux 100% in nt (stimulus buffer only): conc. 0.625 uM; for K+ inhibition as compared with sPIF: dose comparison analysis. The procedure: Currently, effective immunomodulatory agents, with minimal side effects, that can regulate inflammation in the liver to promote liver health in the setting of chronic liver disease have not been developed and they are desperately needed. […] In addition, the effect of TxpIC on these cells were tested This is a potent chemical mimicking viarl infection in the liver.

For assay [2], the system named is Hepatitis C (HCV)-induced primary human hepatocytes (PHH). The assay can be described thus: Inflammatory gene expression in HCV-induced primary human hepatocytes. Format: cell-based. An excerpt: (§1) Methods Primary human hepatocytes (PHHs) and HepaRG™ cells were studied. The later are terminally differentiated hepatic cells derived from a human hepatic progenitor cell line that retains many characteristics of primary human hepatocytes were purchased from Thermo Fisher Scientific Inc. (MA, USA). PHHs were also obtained from Dr. David Geller, at the University of Pittsburgh, through the NIH funded Liver Tissue and Cell Distribution System (LTCDS) and maintained in Williams E Medium containing cell maintenance supplement reagents from Invitrogen (Carlsbad, Calif.). The HCV JFH strain was used in cell culture experiments at an M.O.I. of 0.5-1. […] In other experiments TxpIC at 500 ng/ml were added to the cells. This chemical replicates a viral induced inflammation and therefore it can be used in different cell types also when hepatitis C infection is difficult to induce. […] Li, K. (2012). Hepatology, 55: 666-675. For analysis of endogenous mRNA levels, total RNA was isolated from cells using the RNeasy RNA extraction kit (Qiagen, Valencia, Calif.) and cDNA synthesis was performed using 0.5 μg of total RNA (Transcriptor First Strand cDNA Synthesis Kit, Roche, Basel, Switzerland). Fluorescence real-time PCR analysis was preformed using an ABI 7500 instrument (Applied Biosystems, Foster City, Calif.) and TaqMan gene expression assay (Applied Biosystems). Relative amounts of mRNA, determined using a FAM-Labeled TaqMan Probe, were normalized to the 18S ribosomal RNA levels in each PCR reaction using the eukaryotic 18S rRNA endogenous control from ABI (VIC/MGB Probe, Primer Limited, Cat #4319413E). The delta 2(-Delta Delta C(T)) method was used for quantitation of relative mRNA levels and fold induction.

In assay [3] the test system is TxpIC-induced primary human hepatocytes (PHH). The assay can be described thus: Inflammatory gene expression in TxpIC-induced primary human hepatocytes. Format: cell-based. As to conditions: for Tx pIC induced CxCl10 expression: as compared with sPIF; for Tx pIC induced RSAD2: sPIF 200 nM.
From the text: as §1

The subject of assay [4] is HepaRG cells induced by TxpIC. The assay can be described thus: Inflammatory gene expression in TxpIC-induced HepaRG cells (real-time PCR). Format: cell-based, human. The note with it: TxpIC 500 ng/ml. An excerpt:
Methods Primary human hepatocytes (PHHs) and HepaRG™ cells were studied. The later are terminally differentiated hepatic cells derived from a human hepatic progenitor cell line that retains many characteristics of primary human hepatocytes were purchased from Thermo Fisher Scientific Inc. (MA, USA). PHHs were also obtained from Dr. David Geller, at the University of Pittsburgh, through the NIH funded Liver Tissue and Cell Distribution System (LTCDS) and maintained in Williams E Medium containing cell maintenance supplement reagents from Invitrogen (Carlsbad, Calif.). The HCV JFH strain was used in cell culture experiments at an M.O.I. of 0.5-1. […] In other experiments TxpIC at 500 ng/ml were added to the cells. […] Fluorescence real-time PCR analysis was preformed using an ABI 7500 instrument (Applied Biosystems, Foster City, Calif.) and TaqMan gene expression assay (Applied Biosystems). Relative amounts of mRNA, determined using a FAM-Labeled TaqMan Probe, were normalized to the 18S ribosomal RNA levels in each PCR reaction using the eukaryotic 18S rRNA endogenous control from ABI (VIC/MGB Probe, Primer Limited, Cat #4319413E). The delta 2(-Delta Delta C(T)) method was used for quantitation of relative mRNA levels and fold induction.
Background: Quantitative PCR measures a nucleic acid by following its amplification.

As to MVRIFPGSANKPSDD [PIF-pos2], in assay [1], the Effectiveness was −17.02 and the “Kv flux 100% in nt (stimulus buffer only)” value (shortened to “Kv flux 100% in nt”) is reported as 117%.
With MVRIIPGSANKPSDD [PIF-pos4], in assay [1], the Effectiveness is reported as −1.117 and the “Kv flux 100% in nt” value is recorded as 101.1%.
With MVRIKPGSANKPSFD [PIF-pos10], in assay [2], the “HCV induced CXCL10 expression” value is on record as “inhibit”, the “HCV induced IL28 expression” value is reported as “Inhibitory effect” and the “INFa induced suppression of HCV” value was “potentiate”. Further, in assay [1], the Effectiveness stood at 53.72, the “Kv flux 100% in nt” value is listed as 46.28% and the “K+ inhibition as compared with sPIF” value was “increased K+ inhibition as compared with sPIF”. In assay [3], the “500 ng/ml TpxIC induced CCL5” value is reported as “Inhibitory effect”, the “Tx pIC induced CxCl10 expression” value is “inhibit” and the “Tx pIC induced RSAD2” value is listed as “inhibit”. The “effect on RSAD2 compared with sPIF” value in assay [4] is listed as “similar”. Further, the “suppression of CxCL10, IL28, CCL5 compared with sPIF” value in assay [4] (time dependent) was “more pronounced suppression than sPIF”.
MVRIKPGSANKWSDD [PIF-pos9]: in assay [1], the Effectiveness is 34.09 and the “Kv flux 100% in nt” value is 65.91%.
As to MVRIKPGSANWPSDD [PIF-pos8], in assay [1], the Effectiveness amounted to 45.79 and the “Kv flux 100% in nt” value was determined as 54.21%.
Take MVRIKPGSWNKPSDD [PIF-pos7]: in assay [1], the Effectiveness is given as −22.27 and the “Kv flux 100% in nt” value turned out to be 122.3%.
Regarding MVRIKPWSANKPSDD [PIF-pos6], in assay [1], the Effectiveness is −20.45 and the “Kv flux 100% in nt” value is listed as 120.5%.
For the sequence MVRIKPYSANKPSDD [PIF-pos5], in assay [1], the Effectiveness was 22.81 and the “Kv flux 100% in nt” value came out at 77.19%.
For the sequence MVRIWPGSANKPSDD [PIF-pos1], in assay [1], the Effectiveness is reported as 47.8 and the “Kv flux 100% in nt” value is on record as 52.2%.
As for MVRIYPGSANKPSDD [PIF-pos3], in assay [2], the “HCV induced CXCL10 expression” value is reported as “inhibit” and the “INFa induced suppression of HCV” value is “potentiate”. In assay [1], the Effectiveness was determined as 52.05, the “Kv flux 100% in nt” value is recorded as 47.95% and the “K+ inhibition as compared with sPIF” value was “increased K+ inhibition as compared with sPIF”. Moreover, in assay [3], the “500 ng/ml TpxIC induced CCL5” value is listed as “Inhibitory effect”, the “Tx pIC induced CxCl10 expression” value is “inhibit” and the “Tx pIC induced RSAD2” value is given as “inhibit”.
